Earlier results, collected in patent publication US20100204159A1, “ORGANIC COMPOUNDS AND THEIR USES” (priority 2006, published 2010).

Test system: HCV
Details: ribavirin alone; Davis, Gastroenterology 118:S104-S114, 2000

## NC(=O)c1ncn([C@@H]2O[C@H](CO)[C@@H](O)[C@H]2O)n1 [Ribavirin, 1-β-D-ribofuranosyl-1-1,2,4-triazole-3-caroxamide]
  effect on serum levels of HCV-RNA: does not lower serum levels of HCV-RNA
  patients in whom serum amino transferase levels are reduced to normal: 40 % of patients
